# Assay results from patent US11247985B2, “Phenyl indole allosteric inhibitors of P97 ATPase” (University of Pittsburgh—Of the Commonwealth System of …, priority 2015, dated 2022).
# Target: p97 ATPase WT (Homo sapiens (Human), UniProt P55072)
# Assay: p97 ADP-Glo assay
# Format: biochemical
# Conditions: Table 3; read-out: ADPGlo IC50
# Excerpt: ADP-Glo™ (Promega Corp.) is a bioluminescent, homogeneous assay that measures ADP formed from a biochemical reactions. Because of its high sensitivity, the assay is suitable for monitoring enzyme activities at very early substrate conversions requiring very low amount of enzymes.
# The ADP-Glo assay can be conducted as described in Chou, T.-F.; Bulfer, S. L.; Weihl, C.
# Chain of p97 ATPase WT (P55072 whole entry): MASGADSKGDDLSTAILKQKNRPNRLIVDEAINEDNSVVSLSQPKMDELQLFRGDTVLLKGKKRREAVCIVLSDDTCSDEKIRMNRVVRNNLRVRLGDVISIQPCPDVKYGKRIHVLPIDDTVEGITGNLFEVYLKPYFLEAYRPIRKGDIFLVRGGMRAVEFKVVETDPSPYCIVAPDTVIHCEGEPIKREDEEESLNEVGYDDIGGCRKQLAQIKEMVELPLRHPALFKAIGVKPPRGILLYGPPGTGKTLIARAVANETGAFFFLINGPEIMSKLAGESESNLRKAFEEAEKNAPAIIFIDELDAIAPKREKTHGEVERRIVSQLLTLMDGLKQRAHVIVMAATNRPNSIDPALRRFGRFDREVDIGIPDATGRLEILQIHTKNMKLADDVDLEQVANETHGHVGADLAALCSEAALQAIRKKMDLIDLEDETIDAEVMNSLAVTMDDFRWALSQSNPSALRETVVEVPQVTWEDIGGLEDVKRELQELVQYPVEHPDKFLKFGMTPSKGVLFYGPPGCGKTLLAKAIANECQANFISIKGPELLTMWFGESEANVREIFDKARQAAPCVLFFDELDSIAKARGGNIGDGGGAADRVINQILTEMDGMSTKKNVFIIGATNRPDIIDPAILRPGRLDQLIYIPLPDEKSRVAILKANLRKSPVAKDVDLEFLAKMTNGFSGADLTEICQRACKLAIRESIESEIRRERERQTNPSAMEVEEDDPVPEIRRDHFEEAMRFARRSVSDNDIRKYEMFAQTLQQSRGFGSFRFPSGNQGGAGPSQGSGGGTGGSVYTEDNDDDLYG
row,Structure (SMILES),IC50 [nM]
1,CC(C)N1CCN(CCNC(=O)CC2CCN(c3cccc(-c4cc5ccccc5[nH]4)c3)CC2)CC1,7340
2,CC(C)[C@H]1CC[C@H](NC2CCN(c3cccc(-c4cc5cc(C#N)ccc5[nH]4)c3)CC2)CC1,6200
3,CN1CCN(C2(CNC3CCN(c4cccc(-c5cc6ccccc6[nH]5)c4)CC3)CCC2)CC1,140
4,Cn1ncnc1CCNC1CCN(c2cccc(-c3cc4ccccc4[nH]3)c2)CC1,810
5,CC(C)N1CCCN(CCNC2CCN(c3cccc(-c4cc5ccccc5[nH]4)c3)CC2)CC1,150
6,CN1[C@@H]2CCC[C@H]1C[C@@H](NC1CCN(c3cccc(-c4cc5ccccc5[nH]4)c3)CC1)C2,1300
7,Cc1ccc2[nH]c(-c3cccc(N4CCC(NCCN5CCN(C(C)C)CC5)CC4)c3)cc2c1,200
8,Cc1ccc(N2CCC(NC3CCN(C)CC3)CC2)cc1-c1cc2ccccc2[nH]1,350
9,CC(C)N1CCC(NC(=O)C2CCN(c3cccc(-c4cc5cc(F)ccc5[nH]4)c3)CC2)CC1,3900
10,CCC(C)N1CCN(CCCNC2CCN(c3cccc(-c4cc5ccccc5[nH]4)c3)CC2)CC1 (stereo not shown),640
11,COC(=O)c1ccc2[nH]c(-c3cccc(N4CCC(NCCN5CCN(C(C)C)CC5)CC4)c3)cc2c1,150
12,CC(C)N1CCN(C(=O)CCNC2CCN(c3cccc(-c4cc5cc(F)ccc5[nH]4)c3)CC2)CC1,120
13,CC(C)N1CCN(CCOC2CCN(c3cccc(-c4cc5ccccc5[nH]4)c3)CC2)CC1,12000
14,CC(C)N1CCN(C(=O)CCNC2CCN(c3cccc(-c4cc5ccccc5[nH]4)c3)CC2)CC1,140
15,CN1CCN(C2(CNC3CCN(c4cccc(-c5cc6cc(C#N)ccc6[nH]5)c4)CC3)CCC2)CC1,26
16,CC(C)N1CCN(CCCNC2CCN(c3cccc(-c4cc5ccccc5[nH]4)c3)CC2)CC1,370
17,CC(C)N1CCN(CCNC2CCN(c3ccc(F)c(-c4cc5ccccc5[nH]4)c3)CC2)CC1,410

row,Structure (SMILES),IC50 [nM]
1,CN1CCN(C2(CNC3CCN(c4cccc(-c5cc6ccccc6[nH]5)c4)CC3)CCCCC2)CC1,260
2,CCN(CC)C(=O)CCNC1CCN(c2cccc(-c3cc4cc(F)ccc4[nH]3)c2)CC1,670
3,CN1CCN(C(C)(C)CNC2CCN(c3cccc(-c4cc5ccccc5[nH]4)c3)CC2)CC1,450
4,CC(C)N1CCN(CCNC2CCN(c3cccc(-c4cc5cc(OC(F)(F)F)ccc5[nH]4)c3)CC2)CC1,3700
5,[N-]=[N+]=Nc1cccc(CNC2CCN(c3cccc(-c4cc5cc(F)ccc5[nH]4)c3)CC2)c1,680
6,Fc1ccc2[nH]c(-c3cccc(N4CCC(NCCc5c[nH]c6ccccc56)CC4)c3)cc2c1,11000
7,CC(C)N1CCC(NC2CCN(c3cccc(-c4cc5cc(S(=O)(=O)NCc6ccccc6)ccc5[nH]4)c3)CC2)CC1,7500
8,CC(C)N1CCN(CCNC2CCN(c3cccc(-c4[nH]c5ccc(F)cc5c4-c4c(-c5cccc(N6CCC(NCCN7CCN(C(C)C)CC7)CC6)c5)[nH]c5ccc(F)cc45)c3)CC2)CC1,9300
9,CC(C)N1CCN(CCNC2CCN(C(=O)c3cccc(-c4cc5ccccc5[nH]4)c3)CC2)CC1,13600
10,CC(C)N1CCN(CCC2CCN(c3cccc(-c4cc5ccccc5[nH]4)c3)CC2)CC1,6000
11,CC(C)N1CCN(CC=C2CCN(c3cccc(-c4cc5ccccc5[nH]4)c3)CC2)CC1,5800
12,CC(C)N1CCN(CCNC2CCN(c3cccc(-c4cc5cc(N=[N+]=[N-])ccc5[nH]4)c3)CC2)CC1,200
13,CC(C)(C)N1CCN(CCNC2CCN(c3cccc(-c4cc5ccccc5[nH]4)c3)CC2)CC1,130
14,CC(C)N1CCN(C2(CNC3CCN(c4cccc(-c5cc6cc(F)ccc6[nH]5)c4)CC3)COC2)CC1,41
15,CC(C)N1CCN(CCNC2CCN(c3cccc(-c4cc5cc(C(F)(F)F)ccc5[nH]4)c3)CC2)CC1,6000
16,c1cc(-c2cc3ccccc3[nH]2)cc(N2CCC(NCCCN3CCOCC3)CC2)c1,800
17,CC(C)N1CCN(C2(CNC3CCN(c4cccc(-c5cc6cc(C#N)ccc6[nH]5)c4)CC3)CCC2)CC1,15
